Common to all, as to type: in vivo
The subject of experiment [1] is wild oats (Avena fatua). The experiment in a line: Preemergence herbicidal activity, wild oats. The settings on record: Avena fatua, pre-emergence, 336 h, Pre, 2 lb/A; read-out: % control, Wild oat. In outline: (§1)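 Acetone-dissolved compound, water-diluted, sprayed over soil flats at 50 gallons/acre carrier and lb/A rates; pre- vs postemergence timing is at planting vs two weeks after germination. Evaluation ~two weeks post-spray, expressed as mean percentage of plants dead.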

Experiment [2] has as its system cocklebur (Xanthium pensylvanicum). The experiment is described as follows: Preemergence herbicidal activity, cocklebur. The settings on record: Xanthium strumarium, pre-emergence, 336 h, 2 lb/A. The procedure, abridged: as §1
In experiment [3] the test system is marigold (Tagetes spp.). The experiment is described as follows: Postemergence herbicidal activity, marigold. The settings on record: post-emergence, 336 h, 2 lb/A. In outline:
as §1

Experiment [4] deals with velvetleaf (Abutilon theophrasti). The experiment is described as follows: Postemergence herbicidal activity, velvetleaf. The settings on record: Abutilon theophrasti, post-emergence, 336 h, 2 lb/A. In outline: (§2)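 Flats of soil-planted weed seeds were treated either right after sowing (preemergence) or two weeks after germination (postemergence). Application was a spray of acetone solution diluted in water, 50 gallons per acre carrier, dosed in lb/A.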

Experiment [5] deals with barnyardgrass (Echinochloa crusgalli). The experiment is described as follows: Postemergence herbicidal activity, barnyardgrass. The settings on record: Echinochloa crus-galli, post-emergence, 336 h; Post, 2 lb/A. The procedure, abridged: as §2
For experiment [6], the system named is downybrome (Bromus tectorum). The experiment is described as follows: Preemergence herbicidal activity, downybrome. The settings on record: Bromus tectorum, pre-emergence, 336 h, Pre, 2 lb/A. The procedure, abridged: as §1
Experiment [7] has as its system foxtail (Setaria spp.). The experiment in a line: Preemergence herbicidal activity, foxtail. The settings on record: Setaria, pre-emergence, 336 h; Pre, 2 lb/A. The procedure, abridged: as §1
Experiment [8] deals with downybrome (Bromus tectorum). The experiment is described as follows: Postemergence herbicidal activity, downybrome. The settings on record: Bromus tectorum, post-emergence, 336 h, Post, 2 lb/A. The procedure, abridged:
as §1

In experiment [9] the test system is tomato (Lycopersicon esculentum). The experiment is described as follows: Preemergence herbicidal activity, tomato. The settings on record: Solanum lycopersicum, pre-emergence, 336 h; Pre, 2 lb/A. In outline:
as §1

Experiment [10] concerns yellow nutsedge (Cyperus esculentus). The experiment is described as follows: Preemergence herbicidal activity, yellow nutsedge. The settings on record: Cyperus, pre-emergence, 336 h, 2 lb/A. The procedure, abridged: as §1
The subject of experiment [11] is morningglory (Ipomoca spp.). The experiment is described as follows: Preemergence herbicidal activity, morningglory. The settings on record: Ipomoea, pre-emergence, 336 h, 2 lb/A. In outline: as §1
For experiment [12], the system named is tomato (Lycopersicon esculentum). The experiment is described as follows: Postemergence herbicidal activity, tomato. The settings on record: Solanum lycopersicum, post-emergence, 336 h, Post, 2 lb/A. The procedure, abridged: as §1
In experiment [13] the test system is wild oats (Avena fatua). The experiment is described as follows: Postemergence herbicidal activity, wild oats. The settings on record: Avena fatua, post-emergence, 336 h, Post, 2 lb/A; read-out: % control, Wild oat. The procedure, abridged:
as §1

In experiment [14] the test system is velvetleaf (Abutilon theophrasti). The experiment is described as follows: Preemergence herbicidal activity, velvetleaf. The settings on record: Abutilon theophrasti, pre-emergence, 336 h; Pre, 2 lb/A. In outline: as §1
Experiment [15] concerns marigold (Tagetes spp.). The experiment is described as follows: Preemergence herbicidal activity, marigold. The settings on record: pre-emergence, 336 h, 2 lb/A. In outline:
as §1

For experiment [16], the system named is cocklebur (Xanthium pensylvanicum). The experiment is described as follows: Postemergence herbicidal activity, cocklebur. The settings on record: Xanthium strumarium, post-emergence, 336 h, 2 lb/A. In outline: as §1
The subject of experiment [17] is yellow nutsedge (Cyperus esculentus). The experiment in a line: Postemergence herbicidal activity, yellow nutsedge. The settings on record: Cyperus, post-emergence, 336 h, 2 lb/A. The procedure, abridged:
as §1

Experiment [18] concerns barnyardgrass (Echinochloa crusgalli). The experiment is described as follows: Preemergence herbicidal activity, barnyardgrass. The settings on record: Echinochloa crus-galli, pre-emergence, 336 h; Pre, 2 lb/A. The procedure, abridged:
as §2

The subject of experiment [19] is foxtail (Setaria spp.). The experiment in a line: Postemergence herbicidal activity, foxtail. The settings on record: Setaria, post-emergence, 336 h, Post, 2 lb/A. The procedure, abridged: as §1
Experiment [20] deals with morningglory (Ipomoca spp.). The experiment in a line: Postemergence herbicidal activity, morningglory. The settings on record: Ipomoea, post-emergence, 336 h, 2 lb/A. The procedure, abridged:
as §1

For the compound `CCOC(=O)C=CCOc1ccc(Oc2ccc(C(F)(F)F)cc2Cl)cc1` [Example 30], the pest or weed control at 2241.7 g/ha (in the experiment with wild oats (Avena fatua) [1]; in experiment [2]; in the experiment with marigold (Tagetes spp.) [3]; in [4]; in [5]; in experiment [6]) was 0% each time. The pest or weed control at 2241.7 g/ha in the experiment with foxtail (Setaria spp.) [7] turned out to be 60%; in [8], 0%; in experiment [9], 0%; in experiment [10], 0%; in [11], 0%; in [12], 30%. Also, the pest or weed control at 2241.7 g/ha was 30% in the experiment with wild oats (Avena fatua) [13]; 0% in experiment [14]; 0% in the experiment on marigold (Tagetes spp.) [15]; 0% in experiment [16]; 0% in experiment [17]; 60% in experiment [18]. Moreover, the results for the pest or weed control at 2241.7 g/ha (in the experiment on foxtail (Setaria spp.) [19]; in [20]) were 100% and 0%, respectively.

In the case of `CC(Oc1ccc(Oc2ccc(C(F)(F)F)cc2Cl)cc1)C(=O)OCCN(C)C` (centres unmarked) [Example 31], the pest or weed control at 2241.7 g/ha with wild oats (Avena fatua) [1] was determined as 40%; in experiment [2] it was 0%; in the experiment with marigold (Tagetes spp.) [3], 40%; in experiment [4], 80%; in experiment [5], 100%; in experiment [6], 30%. Also, the pest or weed control at 2241.7 g/ha was found to be 100% in the experiment with foxtail (Setaria spp.) [7]; 100% in [8]; 0% in [9]; 0% in experiment [10]; 70% in experiment [11]; 90% in experiment [12]. For the same compound, the pest or weed control at 2241.7 g/ha worked out at 99% in the experiment with wild oats (Avena fatua) [13]; 0% in experiment [14]; 0% with marigold (Tagetes spp.) [15]; 60% in experiment [16]; 0% in experiment [17]; 100% in [18]. The values for the pest or weed control at 2241.7 g/ha (in the experiment with foxtail (Setaria spp.) [19]; in experiment [20]) were 100% and 80%, respectively.

For the compound `CCCOC(=O)C(C)Oc1ccc(Oc2ccc(C(F)(F)F)cc2Cl)cc1` (centres unmarked) [Example 32], the pest or weed control at 2241.7 g/ha with wild oats (Avena fatua) [1] came to 80%; in experiment [2], 0%; in the experiment with marigold (Tagetes spp.) [3], 20%; in experiment [4], 30%; in experiment [5], 100%; in experiment [6], 80%. Besides, the pest or weed control at 2241.7 g/ha in the experiment with foxtail (Setaria spp.) [7] was 100%; in experiment [8], 100%; in experiment [9], 0%; in [10] it was 0%; in experiment [11], 0%; in experiment [12] it was 30%. The pest or weed control at 2241.7 g/ha with wild oats (Avena fatua) [13] stood at 100%; in experiment [14], 0%; with marigold (Tagetes spp.) [15], 0%; in [16], 0%; in experiment [17], 0%; in experiment [18] it was 100%. The pest or weed control at 2241.7 g/ha with foxtail (Setaria spp.) [19] came to 100%; in [20], 0%.

In the case of `CC(C)COC(=O)C(C)Oc1ccc(Oc2ccc(C(F)(F)F)cc2Cl)cc1` (centres unmarked) [Example 33], the pest or weed control at 2241.7 g/ha was found to be 90% in the experiment with wild oats (Avena fatua) [1]; 0% in experiment [2]; 0% in the experiment with marigold (Tagetes spp.) [3]; 0% in experiment [4]; 100% in experiment [5]; 90% in [6]. In addition, the pest or weed control at 2241.7 g/ha was found to be 100% in the experiment on foxtail (Setaria spp.) [7]; 100% in [8]; 0% in [9]; 0% in experiment [10]; 0% in experiment [11]; 0% in experiment [12]. Besides, the pest or weed control at 2241.7 g/ha turned out to be 100% in the experiment on wild oats (Avena fatua) [13]; 0% in experiment [14]; 0% with marigold (Tagetes spp.) [15]; 0% in experiment [16]; 0% in experiment [17]; 99% in experiment [18]. The pest or weed control at 2241.7 g/ha with foxtail (Setaria spp.) [19] amounted to 100%; in experiment [20], 0%.

As to `CCC(C)OC(=O)C(C)Oc1ccc(Oc2ccc(C(F)(F)F)cc2Cl)cc1` (centres unmarked) [Example 34], the pest or weed control at 2241.7 g/ha turned out to be 80% in the experiment with wild oats (Avena fatua) [1]; 0% in experiment [2]; 0% in the experiment with marigold (Tagetes spp.) [3]; 0% in [4]; 100% in [5]; 95% in [6]. In addition, the pest or weed control at 2241.7 g/ha with foxtail (Setaria spp.) [7] came out at 100%; in experiment [8], 99%; in [9], 0%; in experiment [10], 0%; in [11], 0%; in experiment [12] it was 0%. Moreover, the pest or weed control at 2241.7 g/ha with wild oats (Avena fatua) [13] is 100%; in [14] it was 0%; with marigold (Tagetes spp.) [15] it was 0%; in [16], 0%; in experiment [17], 0%; in experiment [18], 100%. In addition, the pest or weed control at 2241.7 g/ha is 100% in the experiment with foxtail (Setaria spp.) [19] and 0% in experiment [20].

On to `CC(Oc1ccc(Oc2ccc(C(F)(F)F)cc2Cl)cc1)C(=O)OC(C)(C)C` (centres unmarked) [Example 35], for which the pest or weed control at 2241.7 g/ha was determined as 0% in the experiment with wild oats (Avena fatua) [1]; 0% in experiment [2]; 0% in the experiment with marigold (Tagetes spp.) [3]; 0% in experiment [4]; 60% in experiment [5]; 0% in experiment [6]. The pest or weed control at 2241.7 g/ha turned out to be 100% in the experiment with foxtail (Setaria spp.) [7]; 0% in [8]; 0% in [9]; 0% in [10]; 0% in experiment [11]; 0% in [12]. The pest or weed control at 2241.7 g/ha was 0% in the experiment with wild oats (Avena fatua) [13]; 0% in experiment [14]; 0% in the experiment with marigold (Tagetes spp.) [15]; 0% in [16]; 0% in experiment [17]; 99% in experiment [18]. Moreover, the pest or weed control at 2241.7 g/ha turned out to be 100% in the experiment with foxtail (Setaria spp.) [19] and 0% in experiment [20].

In the case of `CCCCCCOC(=O)C(C)Oc1ccc(Oc2ccc(C(F)(F)F)cc2Cl)cc1` (centres unmarked) [Example 36], the pest or weed control at 2241.7 g/ha was determined as 0% in the experiment with wild oats (Avena fatua) [1]; 0% in experiment [2]; 0% in the experiment on marigold (Tagetes spp.) [3]; 0% in experiment [4]; 100% in experiment [5]; 0% in [6]. Moreover, the pest or weed control at 2241.7 g/ha in the experiment with foxtail (Setaria spp.) [7] was 100%; in experiment [8] it was 60%; in [9], 0%; in experiment [10], 0%; in [11], 0%; in experiment [12], 0%. In addition, the pest or weed control at 2241.7 g/ha with wild oats (Avena fatua) [13] was determined as 100%; in experiment [14], 0%; in the experiment on marigold (Tagetes spp.) [15] it was 0%; in [16] it was 0%; in [17] it was 0%; in [18], 100%. For the same compound, the pest or weed control at 2241.7 g/ha in the experiment on foxtail (Setaria spp.) [19] stood at 100%; in [20] it was 0%.
